In patent US20240238299A1, “USE OF PYRROLOPYRIMIDINE COMPOUND” (GUANGZHOU JOYO PHARMATECH CO., LTD, priority 2021, published 2024):

System: MOG35-55-induced experimental autoimmune encephalomyelitis (EAE) mouse model
Assay: MOG35-55-induced EAE mouse model, clinical scoring and incidence
Type: in vivo, C57BL/6 mice
Settings: for inhibition rate of AUC for clinical scoring: 14 days, vs vehicle control

CN(c1ncnc2[nH]ccc12)[C@@H]1CCc2cc(C#N)nn2C1 [Compound I]
0.60: EAE clinical scoring, Mean (G5, 3 mg/kg BID oral, day 15) | EAE clinical scoring, Mean (G5, 3 mg/kg BID oral, day 27) | EAE clinical scoring, Mean (G6, 10 mg/kg BID oral, day 16) | EAE clinical scoring, Mean (G6, 10 mg/kg BID oral, day 18)
0.20: EAE clinical scoring, Mean (G5, 3 mg/kg BID oral, day 13) | EAE clinical scoring, Mean (G6, 10 mg/kg BID oral, day 13)
100%: incidence of EAE (G5, 3 mg/kg BID oral, day 19)
30%: incidence of EAE (G5, 3 mg/kg BID oral, day 27) | incidence of EAE (G6, 10 mg/kg BID oral, day 23) | incidence of EAE (G6, 10 mg/kg BID oral, day 24) | incidence of EAE (G6, 10 mg/kg BID oral, day 25) | incidence of EAE (G6, 10 mg/kg BID oral, day 26)
0.50: EAE clinical scoring, Mean (G6, 10 mg/kg BID oral, day 15) | EAE clinical scoring, Mean (G6, 10 mg/kg BID oral, day 17)
0.30: EAE clinical scoring, Mean (G6, 10 mg/kg BID oral, day 20) | EAE clinical scoring, Mean (G6, 10 mg/kg BID oral, day 21) | EAE clinical scoring, Mean (G6, 10 mg/kg BID oral, day 22)
90%: incidence of EAE (G5, 3 mg/kg BID oral, day 18)
1.50: EAE clinical scoring, Mean (G5, 3 mg/kg BID oral, day 17)
0.40: EAE clinical scoring, Mean (G5, 3 mg/kg BID oral, day 14) | EAE clinical scoring, Mean (G6, 10 mg/kg BID oral, day 14) | EAE clinical scoring, Mean (G6, 10 mg/kg BID oral, day 19) | EAE clinical scoring, Mean (G6, 10 mg/kg BID oral, day 23) | EAE clinical scoring, Mean (G6, 10 mg/kg BID oral, day 24) | EAE clinical scoring, Mean (G6, 10 mg/kg BID oral, day 25) | EAE clinical scoring, Mean (G6, 10 mg/kg BID oral, day 26)
0.80: EAE clinical scoring, Mean (G5, 3 mg/kg BID oral, day 24) | EAE clinical scoring, Mean (G5, 3 mg/kg BID oral, day 25) | EAE clinical scoring, Mean (G5, 3 mg/kg BID oral, day 26)
0.00: EAE clinical scoring, Mean (G5, 3 mg/kg BID oral, day 0) | EAE clinical scoring, Mean (G5, 3 mg/kg BID oral, day 2) | EAE clinical scoring, Mean (G5, 3 mg/kg BID oral, day 4) | EAE clinical scoring, Mean (G5, 3 mg/kg BID oral, day 7) | EAE clinical scoring, Mean (G5, 3 mg/kg BID oral, day 9) | EAE clinical scoring, Mean (G5, 3 mg/kg BID oral, day 11) | EAE clinical scoring, Mean (G5, 3 mg/kg BID oral, day 12) | EAE clinical scoring, Mean (G6, 10 mg/kg BID oral, day 0) | EAE clinical scoring, Mean (G6, 10 mg/kg BID oral, day 2) | EAE clinical scoring, Mean (G6, 10 mg/kg BID oral, day 4) | EAE clinical scoring, Mean (G6, 10 mg/kg BID oral, day 7) | EAE clinical scoring, Mean (G6, 10 mg/kg BID oral, day 9) | EAE clinical scoring, Mean (G6, 10 mg/kg BID oral, day 11) | EAE clinical scoring, Mean (G6, 10 mg/kg BID oral, day 12)
1.90: EAE clinical scoring, Mean (G5, 3 mg/kg BID oral, day 18) | EAE clinical scoring, Mean (G5, 3 mg/kg BID oral, day 19)
1.00: EAE clinical scoring, Mean (G5, 3 mg/kg BID oral, day 23)
80%: incidence of EAE (G5, 3 mg/kg BID oral, day 17)
40%: incidence of EAE (G5, 3 mg/kg BID oral, day 14) | incidence of EAE (G6, 10 mg/kg BID oral, day 14) | incidence of EAE (G6, 10 mg/kg BID oral, day 17) | incidence of EAE (G6, 10 mg/kg BID oral, day 18)
60%: inhibition rate of AUC for clinical scoring (20 mg/kg QD oral) | incidence of EAE (G5, 3 mg/kg BID oral, day 15) | incidence of EAE (G5, 3 mg/kg BID oral, day 21) | incidence of EAE (G5, 3 mg/kg BID oral, day 22) | incidence of EAE (G5, 3 mg/kg BID oral, day 23)
1.30: EAE clinical scoring, Mean (G5, 3 mg/kg BID oral, day 20)
63%: inhibition rate of AUC for clinical scoring (20 mg/kg BID oral)
20%: incidence of EAE (G5, 3 mg/kg BID oral, day 13) | incidence of EAE (G6, 10 mg/kg BID oral, day 13) | incidence of EAE (G6, 10 mg/kg BID oral, day 19) | incidence of EAE (G6, 10 mg/kg BID oral, day 21) | incidence of EAE (G6, 10 mg/kg BID oral, day 22)
50%: incidence of EAE (G5, 3 mg/kg BID oral, day 24) | incidence of EAE (G5, 3 mg/kg BID oral, day 25) | incidence of EAE (G5, 3 mg/kg BID oral, day 26) | incidence of EAE (G6, 10 mg/kg BID oral, day 15) | incidence of EAE (G6, 10 mg/kg BID oral, day 16)
0%: incidence of EAE (G5, 3 mg/kg BID oral, day 0) | incidence of EAE (G5, 3 mg/kg BID oral, day 2) | incidence of EAE (G5, 3 mg/kg BID oral, day 4) | incidence of EAE (G5, 3 mg/kg BID oral, day 7) | incidence of EAE (G5, 3 mg/kg BID oral, day 9) | incidence of EAE (G5, 3 mg/kg BID oral, day 11) | incidence of EAE (G5, 3 mg/kg BID oral, day 12) | incidence of EAE (G6, 10 mg/kg BID oral, day 0) | incidence of EAE (G6, 10 mg/kg BID oral, day 2) | incidence of EAE (G6, 10 mg/kg BID oral, day 4) | incidence of EAE (G6, 10 mg/kg BID oral, day 7) | incidence of EAE (G6, 10 mg/kg BID oral, day 9) | incidence of EAE (G6, 10 mg/kg BID oral, day 11) | incidence of EAE (G6, 10 mg/kg BID oral, day 12)
77%: inhibition rate of AUC for clinical scoring (10 mg/kg BID oral)
44%: inhibition rate of AUC for clinical scoring (3 mg/kg BID oral)
10%: incidence of EAE (G6, 10 mg/kg BID oral, day 20)
1.10: EAE clinical scoring, Mean (G5, 3 mg/kg BID oral, day 21) | EAE clinical scoring, Mean (G5, 3 mg/kg BID oral, day 22)
0.90: EAE clinical scoring, Mean (G5, 3 mg/kg BID oral, day 16)
70%: incidence of EAE (G5, 3 mg/kg BID oral, day 16) | incidence of EAE (G5, 3 mg/kg BID oral, day 20)
